Structures can show the parent of a compound that is named as a salt. Where two headings read alike, the source gives them in different places.
Key:
[1] = biological target: T1, α2A receptor (Homo sapiens, UniProt P08913); assay: Competitive receptor binding assay, α2A (3H-RX821002, CHO-K1-α2A membranes); conditions: for affinity for the α2A receptor / affinity α1A/2A: in words, compared with dexmedetomidine hydrochloride
T1 construct: expressed in transfected cells; host or cells: CHO-K1
T1 sequence (P08913 1-465): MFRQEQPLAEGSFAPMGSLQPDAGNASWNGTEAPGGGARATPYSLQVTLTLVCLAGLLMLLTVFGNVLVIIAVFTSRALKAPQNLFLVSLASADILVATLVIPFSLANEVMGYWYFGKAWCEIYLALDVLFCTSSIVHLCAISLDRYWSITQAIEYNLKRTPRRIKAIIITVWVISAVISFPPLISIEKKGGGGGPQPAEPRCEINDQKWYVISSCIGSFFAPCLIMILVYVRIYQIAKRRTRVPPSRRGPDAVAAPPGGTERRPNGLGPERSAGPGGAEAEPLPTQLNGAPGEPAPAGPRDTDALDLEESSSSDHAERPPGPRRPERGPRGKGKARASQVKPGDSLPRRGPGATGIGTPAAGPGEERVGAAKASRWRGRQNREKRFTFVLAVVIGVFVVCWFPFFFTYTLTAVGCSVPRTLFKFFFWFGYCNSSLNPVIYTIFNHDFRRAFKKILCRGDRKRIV
Method: Standard buffer (used for preparing α1A, α2A, α2B, and α2C receptor membranes): 146 mg of EDTA was weighed out, a 50 mM Tris-HCl buffer was added to reach a total volume of 1000 mL, and the pH was adjusted to 7.7 to make a final concentration of 0.5 mM for EDTA.
Test sample (compound): The theoretical sample weighing amount was calculated according to the designed concentration and the required volume. Generally, the test sample was dissolved in DMSO to an initial preparation dose of 5.0 × 10^-3 M, and the solution was sequentially diluted with DMSO to 5.0 × 10^-4 M-5.0 × 10^-9 M; the diluted DMSO solution was diluted with Buffer to a working concentration of 5.0 × 10^-5 M-5.0 × 10^-11 M; and the final concentration of DMSO in the working solution was 1% (the final concentration of DMSO in the reaction system was 0.2%). The test sample was prepared and then stored at 4 °C. After the test was completed, the test sample was discarded.
CHO-K1-α1A, CHO-K1-α2A, CHO-K1-α2B, and CHO-K1-α2C cells were taken out of a refrigerator at -80 °C, thawed naturally, and centrifuged at 2000 g at 4 °C for 10 min. The supernatant was discarded, and the pellet was collected. A buffer was added to the pellet, and the mixture was homogenized for 20-30 s and then centrifuged at 48000 g at 4 °C for 25 min. The supernatant was discarded, and the buffer was added again. The mixture was homogenized for 20-30 s and centrifuged at 48000 g at 4 °C for 25 min. The supernatant was discarded, and the pellet was collected and stored at -80 °C.
Table 1. Experimental conditions for radioactive binding
Step 1: 50 µL of a vehicle (1% DMSO) was added to a total binding tube (TB), 50 µL of a non-labeled substance (with a final concentration of 1.0 × 10^-5 M) was added to a non-specific binding tube (NB), and 50 µL of a test compound was added to each test compound tube (CB).
Step 2: 100 µL of a buffer was added to each reaction tube.
Step 3: The prepared membrane was suspended in a buffer to give a membrane suspension with a corresponding concentration for later use.
Step 4: 50 µL of the corresponding radioligand was added to each reaction tube.
Step 5: 50 µL of the membrane suspension was added to each reaction tube.
Step 6: Each reaction tube was incubated according to the incubation conditions. After the reaction was completed, the binding ligands were rapidly filtered under reduced pressure. The UniFilter GF/C plate was saturated with a 0.5% PEI solution 1 h in advance, fully washed with an ice-cold Tris-HCl buffer, filtered under vacuum, then placed into a thermostatic dryer, and dried for 30 min. The filter plate was taken out, and a MICROSCINT PS scintillation solution was added at 40 µL/well.
Step 7: The scintillation vial was put into a liquid scintillation counter for counting.
Based on the effect values of the compound samples at different concentration test points, the GraphPad Prism software was used to fit the action curves of the compound samples to the receptors, and the Ki values were calculated.

[2] = tested on: Male SD rats; assay: Fluctuations in blood pressure and heart rate after administration; format: in vivo; conditions: for maximum decrease rates of HR / recovery of HR / maximum increase rates of MAP: compared with dexmedetomidine hydrochloride; for HR decrease Maximum decrease rate / MAP decrease Maximum decrease rate / MAP increase Maximum increase rate: dose as in Test Example 3, within 90 min; for decreases in MAP: no significant decreases greater than the stated value
Method: Male SD rats, weighing 250-300 g, with 4 rats per group, were maintained under general anesthesia by isoflurane inhalation. Femoral artery cannulation was performed, and blood pressure and heart rate were monitored using a Powerlab data acquisition and analysis system. 30 min after the baseline values stabilized, the baseline mean arterial pressure (MAP0) and baseline heart rate (HR0) were measured. The rats were given a solution of each compound in normal saline via tail vein injection (the dose of each compound was the same as in Test Example 3, with rapid intravenous injection over 10 s). Blood pressure and heart rate were continuously recorded for 90 min. MAP^+ (the difference between the maximum mean arterial pressure (MAPmax) and MAP0), MAP^-(the difference between the minimum mean arterial pressure (MAPmin) and MAP0), and HR^- (the difference between the minimum heart rate (HRmin) and HR0) within 90 min were calculated. For calculation, the maximum increase rate of mean arterial pressure = MAP^+/MAP0 × 100%; the maximum decrease rate of mean arterial pressure = MAP^-/MAP0 × 100%; and the maximum decrease rate of heart rate = HR^-/HR0 × 100%.

[3] = Ki, CHO-K1-α2A membranes, 3H-RX821002, read-out: Binding α2A
[4] = isoflurane-anesthetized male SD rats, tail vein injection, dose as in Test Example 3
[5] = isoflurane-anesthetized male SD rats, tail vein injection

Compound	affinity for the α2A receptor [1]	Ki [1]	affinity α1A/2A [1]	maximum decrease rates of HR ([2]; in words, rats)	recovery of HR ([2]; in words, rats)	HR decrease Duration [2, 4]	MAP increase Duration [2, 4]	HR decrease Maximum decrease rate [2, 5]	MAP decrease Maximum decrease rate [2, 5]	MAP increase Maximum increase rate [2, 5]	decreases in MAP ([2]; rats)	also measured
c1cc2c(c(Cc3c[nH]cn3)c1)SCCC2 [Compound 1, 4-[1-(Thiochroman-8-yl)methyl]-1H-imidazole]	comparable											Ki [1, 3]: 15.6 nM
CC(c1c[nH]cn1)c1cccc2c1C=CC2 (stereo not shown) [Compound 8, 4-[1-(1H-Inden-4-yl)ethyl]-1H-imidazole]	comparable	10.8 nM	superior	lower	faster	60 min	2 min	24.9±10.8%	7.1±4.1%	32.0±10.5%	≤ 10%	
Cc1cccc([C@H](C)c2cnc[nH]2)c1C [Dexmedetomidine hydrochloride, reference compound]						90 min	2 min	33.8±5.3%	16.5±14.6%	27.7±4.1%		change in MAP after administration ([2]; in words, initial increase followed by a decrease, rats): biphasic change in MAP; MAP decrease Duration [2, 4]: 90 min; sustained reductions in MAP and HR ([2]; rats, recording for 90 min): 90 min
C[C@H](c1c[nH]cn1)c1cccc2c1CCC2 [Compound 31-b, (S)-4-[1-(2,3-dihydro-1H-inden-4-yl)ethyl]-1H-imidazole]		23.5 nM		lower	faster	60 min	2 min	30.2±7.7%	5.3±4.6%	24.0±11.1%	≤ 10%	maximum increase rates of MAP ([2]; in words, rats): lower
CC(c1c[nH]cn1)c1cccc2c1C=CC2(C)C (stereo not shown) [Compound 17, 4-[1-(1,1-Dimethyl-1H-inden-4-yl)ethyl]-1H-imidazole]		143 nM										
C[C@H](c1c[nH]cn1)c1cc(F)cc2c1C=CC2 [Compound 11-b, 4-[(1S)-1-(6-fluoro-1H-inden-4-yl)ethyl]-1H-imidazole]		211 nM		lower	faster	60 min	2 min	31.2±3.19%	6.7±4.02%	24.1±4.96%	≤ 10%	maximum increase rates of MAP ([2]; in words, rats): lower
CC1Cc2cccc(C(C)c3c[nH]cn3)c2O1 (stereo not shown) [Compound 32, 4-[1-(2-Methyl-2,3-dihydrobenzofuran-7-yl)ethyl]-1H-imidazole]		4.94 nM										
CC(c1c[nH]cn1)c1cccc2c1SCCC2 (stereo not shown) [Compound 2, 4-(1-[Thiochroman-8-yl)ethyl]-1H-imidazole]	superior											Ki [1, 3]: 7.72 nM
CC(c1c[nH]cn1)c1cccc2c1OCC2 (stereo not shown) [Compound 10, 4-[1-(2,3-Dihydrobenzofuran-7-yl)ethyl]-1H-imidazole]	superior	2.4 nM	superior	lower	faster	30 min	2 min	24.2±5.7 %	7.9±7.4%	17.3±5.0 %	≤ 10%	maximum increase rates of MAP ([2]; in words, rats): lower
CC(c1c[nH]cn1)c1cccc2c1CCCC2 (stereo not shown) [Compound 4, 4-(1-(5,6,7,8-Tetrahydronaphthalen-1-yl)ethyl)-1H-imidazole]	comparable	28.7 nM	superior									
CC(c1c[nH]cn1)c1cccc2c1CC2 (stereo not shown) [Compound 3, 4-(1-(Bicyclo[4.2.0]octa-1(6),2,4-trien-2-yl)ethyl)-1H-imidazole]	comparable	29.1 nM	comparable									
C[C@H](c1c[nH]cn1)c1cc(F)cc2c1C(=O)CC2 [Compound 38-b, (S)-7-(1-(1H-imidazol-4-yl)ethyl)-5-fluoro-2,3-dihydro-1H-inden-1-one]												Ki [1, 3]: 701 nM

Reference: EP4729516A1, “S[…] DERIVATIVE, INTERMEDIATE, PREPARATION METHOD THEREFOR AND USE THEREOF” (Jiangsu NHWA Pharmaceutical Co., Ltd, priority 2023, dated 2024)
